pIC50: −log10 of the molar value.
What was measured:
PI3K = PI3K luminescent kinase assay (Promega); format: biochemical; conditions: read-out: Kinase inhibition IC50 PI3K
Excerpt: (§1) PI3K and mTOR kinase inhibition assay
(§2) The inhibitory activity of developed molecules against PI3K and mTOR was identified using luminescent kinase assay, and Lance Ultra assay from Promega, USA, respectively as per our earlier reported procedure ([38]).

mTOR = mTOR (Homo sapiens, UniProt P42345); assay: mTOR Lance Ultra kinase assay; format: biochemical; conditions: read-out: Kinase inhibition IC50 mTOR
Excerpt: as §1, §2

K562 = assay: Cellular antiproliferation assay (CCK-8), K562; format: cell-based, human; conditions: K562 cells, read-out: Cell growth inhibition IC50 K562
KU812 = assay: Cellular antiproliferation assay (CCK-8), KU812; format: cell-based, human; conditions: KU812 cells, read-out: Cell growth inhibition IC50 KU812
Saos-2 = assay: Cellular antiproliferation assay (CCK-8), Saos-2; format: cell-based, human; conditions: Saos-2 cells, read-out: Cell growth inhibition IC50 Saos-2
Description: The human osteosarcoma cancer cell lines MG-63, U2-OS, and Saos-2 were purchased from CBSIBCB of the Chinese Academy of Sciences (Shanghai, China)
Cellular antiproliferation assay using cell counting kit (CCK-8)
The CCK-8 assay was used in the current study to analyze the effect of compounds on cellular proliferation. The transfected cells were seeded in a 96-well plate, and to this CCK-8 (20 µl) was added. The enzyme microplate reader at 450 nm was used to record the absorbance. The inhibitory effect on cellular proliferation was obtained as per the given formula: Inhibitory activity (%) = (1 - Atest/Acontrol) × 100 %.

Saos-2 cells [1] = assay: Cell cycle analysis by flow cytometry; format: cell-based, human; conditions: Saos-2 cells, 10, 20 and 30 µM
Description: The effect of compound 8a (0, 10, 20, and 30 µM) was investigated on the cell cycle of Saos-2 cells as per our earlier reported procedure using a FACSCalibur flow cytometer with CellQuest V.3.3 software (BD Biosciences, USA) ([38]).

Saos-2 cells [2] = assay: Flow cytometric apoptosis assay (Annexin V/PI); format: cell-based, human; conditions: Saos-2 cells, 10, 20 and 30 µM
Description: Flow cytometric apoptosis assay
The effect of compound 8a (0, 10, 20, and 30 µM) on apoptosis was investigated on Saos-2 cells as per our earlier reported procedure using a FACSCalibur flow cytometer with CellQuest V.3.3 software (BD Biosciences, USA) ([38]).

[3] = system: patient-derived osteosarcoma; assay: Osteosarcoma patient-derived orthotopic xenograft (PDOX) mouse model; format: in vivo, Athymic nu/nu nude mice
Description: Surgical orthotopic implantation (SOI) for the establishment of the osteosarcoma PDOX model
The PDOX model in Athymic nu/nu nude mice was established according to our earlier reported procedure ([38]). The tumor tissue for implantation was obtained from a OS patient with written informed consent.
The mice were arbitrarily categorized into four dissimilar groups (n=6), and the treatment schedule lasted for 14 days as follows. The compound 8a was dissolved in the solution of PEG400/Tween 80/Saline solution at 10/10/80 % in volume, respectively prior to intraperitoneal administration.
Groups 2, 3, and 4 received compound 8a (2, 5, and 10 mg/kg, respectively, IP, daily)
The control animals received the vehicle only.
The length and width of the tumor along with the bodyweight of mice were recorded.
The tumor volume was calculated with the following formula:
Tumor volume (mm^3)= length (mm) × width (mm) × […])⁄2
Examination of lung histopathology
At the end of the experiment, the lung tissues were harvested and fixed in formalin (10%). The tissues were further entrenched in paraffin, sectioned using a microtome into 5-μm thickness. The resulting sections were dyed using hematoxylin-eosin (HE).

[4] = Pharmacokinetic assessment in SD rats; format: in vivo; conditions: for AUC 0- INF / C max / T max / T ½: rat, in vivo
Description: Pharmacokinetic assessment
The compound 8a was administered to female SD rats in a single dose of 1 and 5 mg/kg using intra-venomous and per-oral route in the vehicle. The blood samples from the rats were collected in a timely manner starting from 2 min to 24 hr. The serum was extracted from the blood-aliquots for the estimation of various pharmacokinetic parameters (T1/2, Tmax, Cmax, AUC0-INF) developed using WinNonlin software using LC-MS/MS (Applied Biosystem, USA).

| Structure (SMILES) | pIC50 (PI3K) | pIC50 (mTOR) | pIC50 (K562) | pIC50 (KU812) | pIC50 (Saos-2) | further results |
| --- | --- | --- | --- | --- | --- | --- |
| Cc1nc(NC(=O)c2ccc(CN3CCN(c4ccc(Cl)cc4)CC3)cc2)nc(Nc2nccc(-c3nccs3)n2)n1 [Compound 8a] | 6.10 | 6.46 | 6.21 | 6.14 | 6.68 | Effect on cell cycle of Saos-2 cells (Saos-2 cells [1]): G2/M phase arrest; Effect on apoptosis of Saos-2 cells (Saos-2 cells [2]): dose-dependently increases apoptosis; Effect on lung metastasis (lung histopathology) ([3]; PDOX mice, 2 mg/kg IP daily, 14 days): does not have a significant effect; Effect on lung metastasis (lung histopathology) ([3]; PDOX mice, 5 mg/kg IP daily, 14 days): less necrotic lesions and minimum interstitial hemorrhages; Effect on lung metastasis (lung architecture, histopathology) ([3]; PDOX mice, 10 mg/kg IP daily, 14 days): significantly restored close to normal; Body weight of mice ([3]; PDOX mice, 2, 5 and 10 mg/kg IP daily, 14 days, vs control): improvement in body weight; Tumor volume ([3]; PDOX mice, 2, 5 and 10 mg/kg IP daily, at the end of the study): significantly reduced; Tolerability in the pharmacokinetic study ([4]; SD rats, 1 mg/kg IV and 5 mg/kg PO single dose): well-tolerated; AUC 0- INF ([4]; iv, 1 mg/kg): 61.201 µg·h/mL; C max ([4]; iv, 1 mg/kg): 8126 ng/mL; T max ([4]; iv, 1 mg/kg): 0.13 h; T ½ ([4]; iv, 1 mg/kg): 0.75 h; AUC 0- INF ([4]; po, 5 mg/kg): 297.326 µg·h/mL; C max ([4]; po, 5 mg/kg): 410 ng/mL; T max ([4]; po, 5 mg/kg): 2.67 h; T ½ ([4]; po, 5 mg/kg): 3.5 h |
| COc1ccc(N2CCN(Cc3ccc(C(=O)Nc4nc(C)nc(Nc5nccc(-c6nccs6)n5)n4)cc3)CC2)cc1 [Compound 8f] | 5.90 | 6.08 | 5.92 | 5.91 | 6.04 |  |
| Cc1nc(NC(=O)c2ccc(CN3CCN(c4ccc(Br)cc4)CC3)cc2)nc(Nc2nccc(-c3nccs3)n2)n1 [Compound 8b] | 6.05 | 6.41 | 6.14 | 6.08 | 6.57 |  |
| Cc1ccc(N2CCN(Cc3ccc(C(=O)Nc4nc(C)nc(Nc5nccc(-c6nccs6)n5)n4)cc3)CC2)cc1 [Compound 8c] | 6.01 | 6.31 | 6.05 | 5.99 | 6.28 |  |
| Cc1nc(NC(=O)c2ccc(CN3CCN(c4ccc([N+](=O)[O-])cc4)CC3)cc2)nc(Nc2nccc(-c3nccs3)n2)n1 [Compound 8d] | 6.04 | 6.38 | 6.09 | 6.02 | 6.47 |  |
| Cc1nc(NC(=O)c2ccc(CN3CCN(c4ccc(O)cc4)CC3)cc2)nc(Nc2nccc(-c3nccs3)n2)n1 [Compound 8e] | 6.01 | 6.34 | 6.05 | 5.94 | 6.32 |  |
